From patent US20100041679A1, “ORAL DIETING COMPOSITION COMPRISING CONJUGATED LINOLEIC ACID AND CAFFEINE” (Institut Phytoceutic, priority 2004, published 2010)

Experiment: Additional study on 24 people with excess weight, formulations given orally, two sachets/day for one month, weight loss
Type: in vivo, human
Settings: oral route
Method: An additional study was carried out on 24 people with excess weight, to whom the formulations of the following table were administered by the oral route, in an amount of two sachets/day for one month, without changing their dietary habits.

With Conjugated linoleic acid the “weight loss observed, significance in words” value was “not significant” and the “Weight loss observed (as % by weight)” value (dietary habits unchanged) was −1.8 (N.S.) % by weight.
